Test results as given in the supplement of paper PMC10883282.

Assays:
Assay in all cases: relative viability vs DMSO control (72 h) (fraction); higher = more viable cells
A204 = system: A204
Method in brief: (§1)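 Serially diluted compound, 2.5 µl from source plates spanning 10 mM to 0.0002 mM, was added 24 h after sarcoma cell lines were seeded in 384-well plates at densities targeting 80–90% confluence. Plates then sat 72 h at 37 °C, 5% CO2, with 0.1% DMSO vehicle and a 5 µM positive control. Relative viability came from ATPLite as percent growth, averaged over up to triplicate wells, and was rescaled with 1 as full and 0 as none.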

G401 = system: G401
Method in brief: as §1

HS729 = system: HS729
Method in brief: as §1

KHOS-NP = system: KHOS-NP
Method in brief: as §1

MES-SA = system: MES-SA
Method in brief: as §1

RD = system: RD
Method in brief: as §1

SK-ES-1 = system: SK-ES-1
Method in brief: as §1

SK-LMS-1 = system: SK-LMS-1
Method in brief: as §1

SW684 = system: SW684
Method in brief: as §1

SW872 = system: SW872
Method in brief: as §1

SYO-1 = system: SYO-1
Method in brief: as §1

VA-ES-BJ = system: VA-ES-BJ
Method in brief: as §1

CO[C@H]1C[C@@H]2CC[C@@H](C)[C@@](O)(O2)C(=O)C(=O)N2CCCC[C@H]2C(=O)O[C@H]([C@H](C)C[C@@H]2CC[C@@H](OC(=O)C(C)(CO)CO)[C@H](OC)C2)CC(=O)[C@H](C)/C=C(\C)[C@@H](O)[C@@H](OC)C(=O)[C@H](C)C[C@H](C)/C=C/C=C/C=C/1C [Temsirolimus]
Conditions | relative viability
A204, 0.00017 µM | 0.925
A204, 0.00051 µM | 0.762
A204, 0.00152 µM | 0.622
A204, 0.00457 µM | 0.551
A204, 0.01372 µM | 0.534
A204, 0.04115 µM | 0.504
A204, 0.1235 µM | 0.476
A204, 0.3704 µM | 0.453
A204, 1.111 µM | 0.431
A204, 3.333 µM | 0.392
A204, 10 µM | 0.334
G401, 0.00017 µM | 0.945
G401, 0.00051 µM | 0.917
G401, 0.00152 µM | 0.869
G401, 0.00457 µM | 0.82
G401, 0.01372 µM | 0.766
G401, 0.04115 µM | 0.706
G401, 0.1235 µM | 0.665
G401, 0.3704 µM | 0.637
G401, 1.111 µM | 0.621
G401, 3.333 µM | 0.586
G401, 10 µM | 0.396
HS729, 0.00017 µM | 0.909
HS729, 0.00051 µM | 0.926
HS729, 0.00152 µM | 0.907
HS729, 0.00457 µM | 0.931
HS729, 0.01372 µM | 0.903
HS729, 0.04115 µM | 0.854
HS729, 0.1235 µM | 0.811
HS729, 0.3704 µM | 0.758
HS729, 1.111 µM | 0.753
HS729, 3.333 µM | 0.739
HS729, 10 µM | 0.388
KHOS-NP, 0.00017 µM | 1.05
KHOS-NP, 0.00051 µM | 1.05
KHOS-NP, 0.00152 µM | 1.03
KHOS-NP, 0.00457 µM | 1.044
KHOS-NP, 0.01372 µM | 1.05
KHOS-NP, 0.04115 µM | 1.036
KHOS-NP, 0.1235 µM | 1.04
KHOS-NP, 0.3704 µM | 1
KHOS-NP, 1.111 µM | 0.96
KHOS-NP, 3.333 µM | 0.907
KHOS-NP, 10 µM | 0.0158
MES-SA, 0.00017 µM | 0.814
MES-SA, 0.00051 µM | 0.651
MES-SA, 0.00152 µM | 0.497
MES-SA, 0.00457 µM | 0.423
MES-SA, 0.01372 µM | 0.382
MES-SA, 0.04115 µM | 0.3571
MES-SA, 0.1235 µM | 0.353
MES-SA, 0.3704 µM | 0.3494
MES-SA, 1.111 µM | 0.343
MES-SA, 3.333 µM | 0.314
MES-SA, 10 µM | 0.223
RD, 0.00017 µM | 1.09
RD, 0.00051 µM | 1.01
RD, 0.00152 µM | 0.91
RD, 0.00457 µM | 0.84
RD, 0.01372 µM | 0.792
RD, 0.04115 µM | 0.755
RD, 0.1235 µM | 0.735
RD, 0.3704 µM | 0.681
RD, 1.111 µM | 0.667
RD, 3.333 µM | 0.578
RD, 10 µM | 0.441
SK-ES-1, 0.00017 µM | 0.959
SK-ES-1, 0.00051 µM | 0.904
SK-ES-1, 0.00152 µM | 0.8013
SK-ES-1, 0.00457 µM | 0.707
SK-ES-1, 0.01372 µM | 0.64
SK-ES-1, 0.04115 µM | 0.579
SK-ES-1, 0.1235 µM | 0.52
SK-ES-1, 0.3704 µM | 0.538
SK-ES-1, 1.111 µM | 0.519
SK-ES-1, 3.333 µM | 0.432
SK-ES-1, 10 µM | 0.126
SK-LMS-1, 0.00017 µM | 0.916
SK-LMS-1, 0.00051 µM | 0.699
SK-LMS-1, 0.00152 µM | 0.6325
SK-LMS-1, 0.00457 µM | 0.597
SK-LMS-1, 0.01372 µM | 0.537
SK-LMS-1, 0.04115 µM | 0.495
SK-LMS-1, 0.1235 µM | 0.477
SK-LMS-1, 0.3704 µM | 0.472
SK-LMS-1, 1.111 µM | 0.464
SK-LMS-1, 3.333 µM | 0.441
SK-LMS-1, 10 µM | 0.0134
SW684, 0.00017 µM | 1.06
SW684, 0.00051 µM | 1.04
SW684, 0.00152 µM | 0.956
SW684, 0.00457 µM | 0.919
SW684, 0.01372 µM | 0.799
SW684, 0.04115 µM | 0.711
SW684, 0.1235 µM | 0.752
SW684, 0.3704 µM | 0.79
SW684, 1.111 µM | 0.767
SW684, 3.333 µM | 0.767
SW684, 10 µM | -0.00523
SW872, 0.00017 µM | 0.85
SW872, 0.00051 µM | 0.805
SW872, 0.00152 µM | 0.759
SW872, 0.00457 µM | 0.682
SW872, 0.01372 µM | 0.643
SW872, 0.04115 µM | 0.594
SW872, 0.1235 µM | 0.569
SW872, 0.3704 µM | 0.553
SW872, 1.111 µM | 0.516
SW872, 3.333 µM | 0.518
SW872, 10 µM | 0.461
SYO-1, 0.00017 µM | 0.884
SYO-1, 0.00051 µM | 0.877
SYO-1, 0.00152 µM | 0.878
SYO-1, 0.00457 µM | 0.83
SYO-1, 0.01372 µM | 0.798
SYO-1, 0.04115 µM | 0.749
SYO-1, 0.1235 µM | 0.687
SYO-1, 0.3704 µM | 0.633
SYO-1, 1.111 µM | 0.589
SYO-1, 3.333 µM | 0.544
SYO-1, 10 µM | 0.323
VA-ES-BJ, 0.00017 µM | 0.864
VA-ES-BJ, 0.00051 µM | 0.723
VA-ES-BJ, 0.00152 µM | 0.577
VA-ES-BJ, 0.00457 µM | 0.547
VA-ES-BJ, 0.01372 µM | 0.487
VA-ES-BJ, 0.04115 µM | 0.448
VA-ES-BJ, 0.1235 µM | 0.415
VA-ES-BJ, 0.3704 µM | 0.42
VA-ES-BJ, 1.111 µM | 0.419
VA-ES-BJ, 3.333 µM | 0.415
VA-ES-BJ, 10 µM | 0.377
